Laboratory results: US7279317B2, “Modulation of COP9 signalsome isopeptidase activity” (California Institute of Technology, priority 2001, dated 2007)

Assays:
CSN = biological target: T1, CSN (Schizosaccharomyces pombe, UniProt O94454); test: Nedd8 conjugate cleavage (deneddylation of Pcu1/Cul1) by CSN in S. pombe cell extracts, immunoblot; assay type: biochemical; settings: 30 min at 30° C.; for inhibition of Nedd8 conjugate cleavage activity of CSN (Nedd8 deconjugation from Cul1): 1 mM chelator
T1 construct: addition (+) of wild type lysate (which contained active CSN); endogenous in cells; host or cells: wild type S. pombe cell lysate
Experimental: On the basis of this analysis, it was hypothesized that CSN represents the founding member of a novel class of metalloproteases. To test this hypothesis, the effect of a divalent cation chelator on the Nedd8 conjugate cleavage activity associated with CSN was examined. Mutant csn5Δ S. pombe cell extract that contained neddylated Pcu1 was incubated either alone (−) or following addition (+) of wild type lysate (which contained active CSN) supplemented with either methanol vehicle (MeOH), 1 mM 1,10-phenanthroline (O-PT), or 1 mM, 10 mM, or 20 mM EDTA.
Reactions were incubated 30 min at 30° C. and terminated by addition of SDS-PAGE sample buffer, fractionated by SDS-PAGE, transferred to nitrocellulose, and immunoblotted with antibodies directed against S. pombe Cul1. Filter-bound antibodies were decorated with goat-anti-rabbit antibody conjugated to horse radish peroxidase and visualized with ECL reagents (Lyapina et al., supra, 2001).
The status of Nedd8 conjugation to Cul1 was determined by the mobility of Cul1 on the SDS-polyacrylamide gel. Nedd8-conjugated Cul1 migrated more slowly than unmodified Cul.

26S proteasome [1] = settings: prior work; cited from earlier work
26S proteasome [2] = biological target: T2, 26S proteasome (Saccharomyces cerevisiae, UniProt P25043+P30656+P38624+P43588); test: Deubiquitination and degradation of multiubiquitinated Sic1 by purified 26S proteasome, immunoblot; assay type: biochemical; settings: 2.5 μM; in the presence of epoxomicin
T2 construct: made in house; host or cells: Saccharomyces cerevisiae

T1 sequence (O94454 whole entry): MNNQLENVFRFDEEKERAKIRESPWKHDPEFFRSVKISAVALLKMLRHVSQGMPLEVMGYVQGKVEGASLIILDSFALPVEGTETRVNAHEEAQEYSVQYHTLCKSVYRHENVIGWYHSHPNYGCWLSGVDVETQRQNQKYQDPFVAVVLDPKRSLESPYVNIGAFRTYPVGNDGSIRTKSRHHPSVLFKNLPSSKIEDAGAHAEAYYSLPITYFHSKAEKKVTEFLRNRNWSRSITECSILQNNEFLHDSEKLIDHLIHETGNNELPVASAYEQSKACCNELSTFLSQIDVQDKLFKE
T1 sequence (O94308 whole entry partner): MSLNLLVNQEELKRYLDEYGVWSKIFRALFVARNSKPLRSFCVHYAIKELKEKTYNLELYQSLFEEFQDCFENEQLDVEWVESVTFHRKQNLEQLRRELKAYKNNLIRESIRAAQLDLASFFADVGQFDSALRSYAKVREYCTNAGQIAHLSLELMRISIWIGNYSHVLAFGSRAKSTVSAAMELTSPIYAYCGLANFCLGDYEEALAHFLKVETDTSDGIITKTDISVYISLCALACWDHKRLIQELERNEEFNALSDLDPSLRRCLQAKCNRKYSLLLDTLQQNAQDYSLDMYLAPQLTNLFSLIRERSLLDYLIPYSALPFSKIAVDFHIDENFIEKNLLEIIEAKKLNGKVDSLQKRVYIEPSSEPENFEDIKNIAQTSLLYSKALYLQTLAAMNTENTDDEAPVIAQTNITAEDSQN
T1 sequence (Q9HFR0 whole entry partner): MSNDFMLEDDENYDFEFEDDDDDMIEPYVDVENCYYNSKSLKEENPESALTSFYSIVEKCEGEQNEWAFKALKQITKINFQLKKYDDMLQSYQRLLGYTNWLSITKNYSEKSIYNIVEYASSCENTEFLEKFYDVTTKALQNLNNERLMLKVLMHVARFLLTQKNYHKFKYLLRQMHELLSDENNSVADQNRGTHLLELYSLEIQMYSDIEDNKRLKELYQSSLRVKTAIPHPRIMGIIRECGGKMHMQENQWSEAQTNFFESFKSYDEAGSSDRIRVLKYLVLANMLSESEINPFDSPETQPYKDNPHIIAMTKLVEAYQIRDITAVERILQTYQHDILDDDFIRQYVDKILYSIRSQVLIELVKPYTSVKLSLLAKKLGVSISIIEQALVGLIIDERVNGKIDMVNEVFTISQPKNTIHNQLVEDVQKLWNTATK
T1 sequence (O13895 whole entry partner): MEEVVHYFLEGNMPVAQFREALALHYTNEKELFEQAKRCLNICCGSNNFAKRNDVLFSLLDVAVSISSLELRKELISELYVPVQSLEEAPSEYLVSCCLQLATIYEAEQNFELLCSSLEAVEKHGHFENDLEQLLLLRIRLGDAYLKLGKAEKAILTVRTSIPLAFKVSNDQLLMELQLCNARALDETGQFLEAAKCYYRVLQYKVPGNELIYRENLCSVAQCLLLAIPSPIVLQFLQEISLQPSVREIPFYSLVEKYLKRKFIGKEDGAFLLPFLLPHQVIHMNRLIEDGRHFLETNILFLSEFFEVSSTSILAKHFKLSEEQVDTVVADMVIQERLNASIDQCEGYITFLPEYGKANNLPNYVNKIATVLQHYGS
T1 sequence (Q8WZK4 whole entry partner): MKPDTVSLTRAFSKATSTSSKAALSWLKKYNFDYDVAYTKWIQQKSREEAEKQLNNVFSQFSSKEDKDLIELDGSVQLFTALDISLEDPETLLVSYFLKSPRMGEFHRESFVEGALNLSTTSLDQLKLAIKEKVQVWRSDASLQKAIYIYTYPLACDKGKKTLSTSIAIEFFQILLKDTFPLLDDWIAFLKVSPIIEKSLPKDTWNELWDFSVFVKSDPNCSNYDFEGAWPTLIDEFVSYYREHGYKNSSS
T1 sequence (Q9UUJ7 whole entry partner): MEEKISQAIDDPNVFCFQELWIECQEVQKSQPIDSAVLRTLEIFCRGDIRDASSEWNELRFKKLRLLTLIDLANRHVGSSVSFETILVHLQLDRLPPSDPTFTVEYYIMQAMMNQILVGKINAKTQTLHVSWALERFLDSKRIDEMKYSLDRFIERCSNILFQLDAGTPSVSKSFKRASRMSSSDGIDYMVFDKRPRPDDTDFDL

| Compound | inhibition of Nedd8 conjugate cleavage activity of CSN (Nedd8 deconjugation from Cul1) (CSN) | sensitivity of 26S proteasome-associated isopeptidase activity (26S proteasome [1]) | inhibition of Nedd8 deconjugation from Cul1 by CSN (CSN; 10 mM) | inhibition of Nedd8 deconjugation from Cul1 by CSN (CSN; 20 mM) | sensitivity of Sic1 deubiquitination by 26S proteasome to the inhibitor (26S proteasome [2]) |
| --- | --- | --- | --- | --- | --- |
| c1cnc2c(c1)ccc1cccnc12 [1,10-phenanthroline] | completely inhibited | sensitive |  |  |  |
| O=C(O)CN(CCN(CC(=O)O)CC(=O)O)CC(=O)O [EDTA] | No inhibition |  | less than 50% | almost complete inhibition |  |
| ubiquitin vinyl sulfone |  |  |  |  | not sensitive |
